For series [1], the system named is eIF5A-Hyp. The series can be described thus: New hypusine formation (3H-spermidine incorporation) in INS-1 (832/13) cells. Conditions: GC7 125 μM overnight. Type of series: cell-based, rat. The text has this: eIF5A1 and eIF5A2 are the only proteins known to contain the unique amino acid hypusine at position 50. Hypusine is formed as a posttranslational modification of residue Lys50 in a reaction requiring spermidine and catalyzed by the sequential actions of the enzymes deoxyhypusine synthase (DHS) and deoxyhypusine hydroxylase (DOHH) (Chen, K Y, and Liu, A Y. Biochemistry and function of hypusine formation on eukaryotic initiation factor 5A. Biol Signals. 1997; 6(3):105-109). […] To further investigate the mechanism of eIF5A-regulated translation of Nos2, studies were performed following overnight incubation of cells with mimosine (an inhibitor of DOHH) and GC7 (an inhibitor of DHS). […] Similar data using GC7 were obtained in primary mouse islets (data not shown) and in human islets (FIGS. 5F and 5G). […]
Measurement of hvpusination: Approximately 100 islets or 1×10^6 INS-1 cells per condition were incubated with 1.5 μCi ^3H-spermidine (Perkin Elmer) in the presence of 1 mM aminoguanidine. […] Gels were visualized by fluorography, and bands were quantitated using Kodak Molecular Imaging Software v. […]

Series [2] concerns iNOS. The series can be described thus: Cytokine-induced iNOS protein in INS-1 cells (immunoblot). Type of series: cell-based, rat. The text has this: eIF5A1 and eIF5A2 are the only proteins known to contain the unique amino acid hypusine at position 50. Hypusine is formed as a posttranslational modification of residue Lys50 in a reaction requiring spermidine and catalyzed by the sequential actions of the enzymes deoxyhypusine synthase (DHS) and deoxyhypusine hydroxylase (DOHH) (Chen, K Y, and Liu, A Y. Biochemistry and function of hypusine formation on eukaryotic initiation factor 5A. Biol Signals. 1997; 6(3):105-109). […] To further investigate the mechanism of eIF5A-regulated translation of Nos2, studies were performed following overnight incubation of cells with mimosine (an inhibitor of DOHH) and GC7 (an inhibitor of DHS). […] Similar data using GC7 were obtained in primary mouse islets (data not shown) and in human islets (FIGS. 5F and 5G).
Because GC7 is known to be inactivated by the action amine oxidases, which are abundant in serum, typical studies with GC7 in the literature have used aminoguanidine to inhibit amine oxidases (16). […] To rule out possible adverse effects of GC7 on cell viability, quantitative 2 color fluorescence analysis of live (calcein-AM-positive) and dead (ethidium homodimer-1-positive) cells were performed using fluorescence cytometry.
Cytokine and inhibitor incubation studies: For cytokine incubation assays, a 1000× cocktail of cytokines containing 5 μg/ml IL1β, 10 μg/ml TNFα, and 100 μg/ml IFNγ (all prepared in 0.1% BSA in Tris-buffered saline) was applied at 1× final concentration to groups of 50 islets or 1×10^6 INS-1 (832/13) cells for a total of 4 h at 37° C. For GC7 incubation studies, GC7 was prepared at a stock concentration of 125 mM in 10 mM acetic acid and applied to cultures of 50 islets or 1×10^6 INS-1 cells to obtain the final concentrations indicted in the figures. Where needed, GC7 was protected from amine oxidases in serum by addition of 1 mM aminoguanidine (Sigma). Cells were incubated with GC7 overnight (˜16 h) at 37° C. prior to analysis. Cells were exposed to Leptomycin B (Cayman Chemicals) for 3 hours; leptomycin B was prepared at a 1000× stock concentration of 20 μg/ml in ethanol.
Immunoblot and nitrite and iNOS assays: Whole cell extracts were resolved by electrophoresis on a 4-20% SDS-polyacrylamide gel, followed by immunoblot using anti-eIF5A1, anti-eIF5A2, anti-iNOS, anti-GFP, or anti-actin primary antibodies and fluorophore-labeled secondary antibodies. Immunoblots were visualized using the Li-Cor® Odyssey® system (Li-Cor Biosciences) and quantitated by scanning fluorometry using Odyssey Imaging v. […] Nitrite was quantitated by measuring nitric oxide-derived nitrite from INS-1 cell culture medium using the Griess reagent (Promega) according to the manufacturer's recommendations. iNOS activity was measured using a commercially available kit (Cayman).
For orientation: In western blotting, separated proteins are transferred to a membrane and probed.

Series [3] relates to STZ-treated NOD/Scid-(IL-2Rγ-null) mice. The series can be described thus: Multiple low-dose STZ model in immune-deficient NOD/Scid-(IL-2Rγ-null) mice. Type of series: in vivo, mouse. Conditions: multiple low-dose STZ (data not shown for si-eIF5A). As to the method: To test the role of eIF5A in cytokine-mediated islet dysfunction, efforts were made to identify a mouse model of islet inflammation. The multiple low dose streptozotocin (STZ) model, in which mice are subjected to five daily intraperitoneal doses (at 55 mg/kg body weight) of STZ, is considered to provoke local islet inflammation and cytokine release, in part through the recruitment of CD11c+ dendritic cells that release pro-inflammatory cytokines in the area of STZ-induced cellular destruction (27 and 28).
As noted, low-dose STZ-induced islet dysfunction involves at least two mechanisms: an inflammatory mechanism that is dependent upon cytokine release from immune cells and a direct toxic mechanism on the islet itself. […] Next, islets from 3 C57BL/6J mice per group 24 h after the initial STZ treatment were isolated and pooled and their iNOS content determined by immunoblot. […]
Studies in vivo: Daily STZ injections to groups of 10 week-old C57BL/6J and NOD/Scid-(IL-2Rγ-null) mice proceeded as described previously (30) at a dose of 55 mg STZ per kg mouse weight for 5 days. […] Serum was analyzed using a Luminex system (Millipore) and a mouse cytokine/chemokines Panel 1 mutliplex kit (Millipore).

`NCCCCCCCN=C(N)N` [GC7]: the “new hypusine formation in INS-1 (832/13)” value in series [1] was “effectively inhibits new hypusine formation”. Moreover, the “concentration at which inhibition of iNOS was observed” value in series [2] (co-incubation with 1 mM aminoguanidine) is ~3 µM. In addition, the “iNOS protein after cytokines” value in series [2] (increasing inhibitor concentrations overnight, cytokines 4 h) is “dose-dependent attenuation”. Also, the “concentration required to substantially block iNOS” value in series [2] (without aminoguanidine) was > 30 µM.
In the case of “5′-AACGGAAUGACUUCCAGCUGA-3′ (siSTABLE modification, further chemistry not given here) [si-eIF5A]”, the “protection against glucose intolerance” value in series [3] is reported as “did not protect against glucose intolerance”.

The record behind these values is patent publication US20120196918A1, “PREVENTING ISLET INFLAMMATION AND DYSFUNCTION AND MAINTAINING PROPER GLUCOSE LEVELS BY CONTROLLING eIF5A AND ITS HYPUSINATION” (priority 2009, published 2012).
